Laboratory results reported in patent US11000033B2, “Ketone or oxime compound, and herbicide” (NISSAN CHEMICAL CORPORATION, priority 2014, dated 2021).

Columns and labels:
Assay type in all cases: in vivo
[1] = system: Scirpus juncoides; experiment: Test Example 1: herbicidal activity, application before weed generation in submerged conditions (symbol B); details: application herbicide amount 320 g/ha
Summary of the method: (§1)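 Weed control was rated three weeks after treatment on a 0–5 scale, from 5% or lower up to 90% or more. Pre-emergence water-surface application of diluted emulsion at a predetermined rate was made on the day of sowing, in flooded (4 cm water) pots containing rice seedlings, kept at 25–30 °C under glass.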

[2] = system: rice; experiment: Test Example 4: effect on crop by soil treatment (symbol b); details: 320 g/ha
Summary of the method: (§2)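 Crop seed is sown in spots together with several weed species in a box of sterilized diluvial soil. It is covered by about 1.5 cm of soil and kept in a greenhouse held between 25° C. and 30° C.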

[3] = system: rapeseed; experiment: Test Example 5: effect on crop by foliage application, plastic box (symbol g); details: 320 g/ha, 3 weeks after application
Summary of the method: (§3)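 Sterilized diluvial soil, plastic box (21 × 13 × 7 cm); spot sowing, ~1.5 cm soil cover; greenhouse 25–30° C.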

[4] = system: Cyperus difformis; experiment: Test Example 3: herbicidal effect by foliage application, Wagner pot (symbol E); details: application herbicide amount 320 g/ha
Summary of the method: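 Foliar spray of water-diluted emulsion formulation at a predetermined herbicide amount onto 14-day-old plants in flooded alluvial soil (water depth 0.1–0.5 cm), greenhouse 25–30 °C; rice sown alongside. Scored 3 wk post-application on set criteria.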

[5] = system: Echinochloa crus-galli var. crus-galli; experiment: Test Example 5: herbicidal effect by foliage application, plastic box (symbol H); details: 320 g/ha, 3 weeks after application
Summary of the method: (§4)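 Emulsion formulation, diluted with water to the intended rate, was applied uniformly to leaves by small sprayer. Recipients were 14-day greenhouse-grown seedlings (25° C. to 30° C.). Assessment followed at 3 weeks.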

[6] = system: Monochoria vaginalis; experiment: Test Example 1: herbicidal activity, application before weed generation in submerged conditions (symbol C); details: application herbicide amount 320 g/ha
Summary of the method: as §1

[7] = system: Amaranthus retroflexus; experiment: Test Example 5: herbicidal effect by foliage application, plastic box (symbol N); details: 320 g/ha, 3 weeks after application
Summary of the method: as §4

[8] = system: directly sowed rice plant; experiment: Test Example 3: effect on crop by foliage application, Wagner pot (symbol b); details: application herbicide amount 320 g/ha
Summary of the method: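 Steps: fill a 1/10000-are Wagner pot with alluvial soil; add water and mix to submerge at 0.1–0.5 cm depth; sow rice plus Echinochloa crus-galli var. crus-galli, Leptochloa chinensis and Cyperus difformis; grow in a 25–30 °C greenhouse.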

[9] = system: Setaria viridis; experiment: Test Example 5: herbicidal effect by foliage application, plastic box (symbol G); details: 320 g/ha, 3 weeks after application
Summary of the method: as §4

[10] = system: Amaranthus retroflexus; experiment: Test Example 4: herbicidal effect by soil treatment (symbol N); details: 320 g/ha
Summary of the method: (§5)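 Seeds were sown in sterilized diluvial soil, covered with about 1.5 cm of soil, and the soil surface was sprayed with a water-diluted emulsion of the compound at a predetermined rate. Plants grew in a greenhouse at 25° C. to 30° C.; effects were scored visually 3 weeks after application.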

[11] = system: Echinochloa oryzacola Vasing.; experiment: Test Example 1: herbicidal activity, application before weed generation in submerged conditions (symbol A); details: application herbicide amount 320 g/ha
Summary of the method: as §1

[12] = system: corn; experiment: Test Example 4: effect on crop by soil treatment (symbol c); details: 320 g/ha
Summary of the method: as §2

[13] = system: Stellaria media; experiment: Test Example 4: herbicidal effect by soil treatment (symbol P); details: 320 g/ha
Summary of the method: as §5

[14] = system: rapeseed; experiment: Test Example 4: effect on crop by soil treatment (symbol g); details: 320 g/ha
Summary of the method: as §2

[15] = system: beet; experiment: Test Example 5: effect on crop by foliage application, plastic box (symbol f); details: 320 g/ha, 3 weeks after application
Summary of the method: as §3

[16] = system: Echinochloa crus-galli var. crus-galli; experiment: Test Example 4: herbicidal effect by soil treatment (symbol H); details: 320 g/ha
Summary of the method: as §5

SMILES: CC(CC1CC(O)=C(c2c(C)cc(C)cc2C)C1=O)=NOCc1ccccc1C(F)(F)F (centres unmarked) [1-116]
- Herbicidal effect grade, B: Scirpus juncoides [1]: 4 (Herbicidal ratio of 70% or higher and lower than 90%)
- b: directly sowed rice plant, effect grade on crop [2]: 1 (Herbicidal ratio of 5% or higher and lower than 20%)
- g: rapeseed, effect on crop (criteria 0-5) [3]: 5 (Herbicidal ratio of 90% or more (almost completely withered))
- herbicidal effect on E, grade 0-5 [4]: 4 (Herbicidal ratio of 70% or higher and lower than 90%)
- H: Echinochloa crus-galli var. crus-galli, herbicidal effect (criteria 0-5) [5]: 5 (Herbicidal ratio of 90% or more (almost completely withered))
- Herbicidal effect grade, C: Monochoria vaginalis [6]: 5 (Herbicidal ratio of 90% or more (almost completely withered))
- N: Amaranthus retroflexus, herbicidal effect (criteria 0-5) [7]: 0 (Herbicidal ratio of 5% or lower (almost no effect))
- effect on crop b (directly sowed rice plant), grade 0-5 [8]: 5 (Herbicidal ratio of 90% or more (almost completely withered))
- G: Setaria viridis, herbicidal effect (criteria 0-5) [9]: 5 (Herbicidal ratio of 90% or more (almost completely withered))
- N: Amaranthus retroflexus, herbicidal effect grade [10]: 5 (Herbicidal ratio of 90% or more (almost completely withered))
- Herbicidal effect grade, A: Echinochloa oryzacola Vasing. [11]: 5 (Herbicidal ratio of 90% or more (almost completely withered))
- c: corn, effect grade on crop [12]: 0 (Herbicidal ratio of 5% or lower (almost no effect))
- P: Stellaria media, herbicidal effect grade [13]: 0 (Herbicidal ratio of 5% or lower (almost no effect))
- g: rapeseed, effect grade on crop [14]: 2 (Herbicidal ratio of 20% or higher and lower than 40%)
- f: beet, effect on crop (criteria 0-5) [15]: 0 (Herbicidal ratio of 5% or lower (almost no effect))
- H: Echinochloa crus-galli var. crus-galli, herbicidal effect grade [16]: 3 (Herbicidal ratio of 40% or higher and lower than 70%)

SMILES: CC(CC1CC(O)=C(c2c(C)cc(C)cc2C)C1=O)=NOCc1cccc(C(F)(F)F)c1 (centres unmarked) [1-117]
- Herbicidal effect grade, B: Scirpus juncoides [1]: 5 (Herbicidal ratio of 90% or more (almost completely withered))
- b: directly sowed rice plant, effect grade on crop [2]: 5 (Herbicidal ratio of 90% or more (almost completely withered))
- g: rapeseed, effect on crop (criteria 0-5) [3]: 5 (Herbicidal ratio of 90% or more (almost completely withered))
- herbicidal effect on E, grade 0-5 [4]: 5 (Herbicidal ratio of 90% or more (almost completely withered))
- H: Echinochloa crus-galli var. crus-galli, herbicidal effect (criteria 0-5) [5]: 5 (Herbicidal ratio of 90% or more (almost completely withered))
- Herbicidal effect grade, C: Monochoria vaginalis [6]: 5 (Herbicidal ratio of 90% or more (almost completely withered))
- N: Amaranthus retroflexus, herbicidal effect (criteria 0-5) [7]: 1 (Herbicidal ratio of 5% or higher and lower than 20%)
- effect on crop b (directly sowed rice plant), grade 0-5 [8]: 5 (Herbicidal ratio of 90% or more (almost completely withered))
- G: Setaria viridis, herbicidal effect (criteria 0-5) [9]: 5 (Herbicidal ratio of 90% or more (almost completely withered))
- N: Amaranthus retroflexus, herbicidal effect grade [10]: 0 (Herbicidal ratio of 5% or lower (almost no effect))
- Herbicidal effect grade, A: Echinochloa oryzacola Vasing. [11]: 5 (Herbicidal ratio of 90% or more (almost completely withered))
- c: corn, effect grade on crop [12]: 0 (Herbicidal ratio of 5% or lower (almost no effect))
- P: Stellaria media, herbicidal effect grade [13]: 0 (Herbicidal ratio of 5% or lower (almost no effect))
- g: rapeseed, effect grade on crop [14]: 2 (Herbicidal ratio of 20% or higher and lower than 40%)
- f: beet, effect on crop (criteria 0-5) [15]: 0 (Herbicidal ratio of 5% or lower (almost no effect))
- H: Echinochloa crus-galli var. crus-galli, herbicidal effect grade [16]: 5 (Herbicidal ratio of 90% or more (almost completely withered))

SMILES: COC(=O)c1ccc(CON=C(C)CC2CC(O)=C(c3c(C)cc(C)cc3C)C2=O)cc1 (centres unmarked) [1-118]
- Herbicidal effect grade, B: Scirpus juncoides [1]: 1 (Herbicidal ratio of 5% or higher and lower than 20%)
- b: directly sowed rice plant, effect grade on crop [2]: 5 (Herbicidal ratio of 90% or more (almost completely withered))
- g: rapeseed, effect on crop (criteria 0-5) [3]: 4 (Herbicidal ratio of 70% or higher and lower than 90%)
- herbicidal effect on E, grade 0-5 [4]: 0 (Herbicidal ratio of 5% or lower (almost no effect))
- H: Echinochloa crus-galli var. crus-galli, herbicidal effect (criteria 0-5) [5]: 2 (Herbicidal ratio of 20% or higher and lower than 40%)
- Herbicidal effect grade, C: Monochoria vaginalis [6]: 2 (Herbicidal ratio of 20% or higher and lower than 40%)
- N: Amaranthus retroflexus, herbicidal effect (criteria 0-5) [7]: 0 (Herbicidal ratio of 5% or lower (almost no effect))
- effect on crop b (directly sowed rice plant), grade 0-5 [8]: 5 (Herbicidal ratio of 90% or more (almost completely withered))
- G: Setaria viridis, herbicidal effect (criteria 0-5) [9]: 0 (Herbicidal ratio of 5% or lower (almost no effect))
- N: Amaranthus retroflexus, herbicidal effect grade [10]: 0 (Herbicidal ratio of 5% or lower (almost no effect))
- Herbicidal effect grade, A: Echinochloa oryzacola Vasing. [11]: 5 (Herbicidal ratio of 90% or more (almost completely withered))
- c: corn, effect grade on crop [12]: 0 (Herbicidal ratio of 5% or lower (almost no effect))
- P: Stellaria media, herbicidal effect grade [13]: 0 (Herbicidal ratio of 5% or lower (almost no effect))
- g: rapeseed, effect grade on crop [14]: 1 (Herbicidal ratio of 5% or higher and lower than 20%)
- f: beet, effect on crop (criteria 0-5) [15]: 0 (Herbicidal ratio of 5% or lower (almost no effect))
- H: Echinochloa crus-galli var. crus-galli, herbicidal effect grade [16]: 4 (Herbicidal ratio of 70% or higher and lower than 90%)

SMILES: CC(CC1CC(O)=C(c2c(C)cc(C)cc2C)C1=O)=NOCc1ccccc1[N+](=O)[O-] (centres unmarked) [1-119]
- Herbicidal effect grade, B: Scirpus juncoides [1]: 0 (Herbicidal ratio of 5% or lower (almost no effect))
- b: directly sowed rice plant, effect grade on crop [2]: 5 (Herbicidal ratio of 90% or more (almost completely withered))
- g: rapeseed, effect on crop (criteria 0-5) [3]: 5 (Herbicidal ratio of 90% or more (almost completely withered))
- herbicidal effect on E, grade 0-5 [4]: 0 (Herbicidal ratio of 5% or lower (almost no effect))
- H: Echinochloa crus-galli var. crus-galli, herbicidal effect (criteria 0-5) [5]: 5 (Herbicidal ratio of 90% or more (almost completely withered))
- Herbicidal effect grade, C: Monochoria vaginalis [6]: 0 (Herbicidal ratio of 5% or lower (almost no effect))
- N: Amaranthus retroflexus, herbicidal effect (criteria 0-5) [7]: 0 (Herbicidal ratio of 5% or lower (almost no effect))
- effect on crop b (directly sowed rice plant), grade 0-5 [8]: 5 (Herbicidal ratio of 90% or more (almost completely withered))
- G: Setaria viridis, herbicidal effect (criteria 0-5) [9]: 5 (Herbicidal ratio of 90% or more (almost completely withered))
- N: Amaranthus retroflexus, herbicidal effect grade [10]: 0 (Herbicidal ratio of 5% or lower (almost no effect))
- Herbicidal effect grade, A: Echinochloa oryzacola Vasing. [11]: 1 (Herbicidal ratio of 5% or higher and lower than 20%)
- c: corn, effect grade on crop [12]: 0 (Herbicidal ratio of 5% or lower (almost no effect))
- P: Stellaria media, herbicidal effect grade [13]: 0 (Herbicidal ratio of 5% or lower (almost no effect))
- g: rapeseed, effect grade on crop [14]: 3 (Herbicidal ratio of 40% or higher and lower than 70%)
- f: beet, effect on crop (criteria 0-5) [15]: 0 (Herbicidal ratio of 5% or lower (almost no effect))
- H: Echinochloa crus-galli var. crus-galli, herbicidal effect grade [16]: 5 (Herbicidal ratio of 90% or more (almost completely withered))

SMILES: CC(CC1CC(O)=C(c2c(C)cc(C)cc2C)C1=O)=NOCC(C)Cl (centres unmarked) [1-121]
- Herbicidal effect grade, B: Scirpus juncoides [1]: 5 (Herbicidal ratio of 90% or more (almost completely withered))
- b: directly sowed rice plant, effect grade on crop [2]: 5 (Herbicidal ratio of 90% or more (almost completely withered))
- g: rapeseed, effect on crop (criteria 0-5) [3]: 5 (Herbicidal ratio of 90% or more (almost completely withered))
- herbicidal effect on E, grade 0-5 [4]: 4 (Herbicidal ratio of 70% or higher and lower than 90%)
- H: Echinochloa crus-galli var. crus-galli, herbicidal effect (criteria 0-5) [5]: 5 (Herbicidal ratio of 90% or more (almost completely withered))
- Herbicidal effect grade, C: Monochoria vaginalis [6]: 3 (Herbicidal ratio of 40% or higher and lower than 70%)
- N: Amaranthus retroflexus, herbicidal effect (criteria 0-5) [7]: 0 (Herbicidal ratio of 5% or lower (almost no effect))
- effect on crop b (directly sowed rice plant), grade 0-5 [8]: 5 (Herbicidal ratio of 90% or more (almost completely withered))
- G: Setaria viridis, herbicidal effect (criteria 0-5) [9]: 5 (Herbicidal ratio of 90% or more (almost completely withered))
- N: Amaranthus retroflexus, herbicidal effect grade [10]: 0 (Herbicidal ratio of 5% or lower (almost no effect))
- Herbicidal effect grade, A: Echinochloa oryzacola Vasing. [11]: 5 (Herbicidal ratio of 90% or more (almost completely withered))
- c: corn, effect grade on crop [12]: 1 (Herbicidal ratio of 5% or higher and lower than 20%)
- P: Stellaria media, herbicidal effect grade [13]: 0 (Herbicidal ratio of 5% or lower (almost no effect))
- g: rapeseed, effect grade on crop [14]: 3 (Herbicidal ratio of 40% or higher and lower than 70%)
- f: beet, effect on crop (criteria 0-5) [15]: 0 (Herbicidal ratio of 5% or lower (almost no effect))
- H: Echinochloa crus-galli var. crus-galli, herbicidal effect grade [16]: 5 (Herbicidal ratio of 90% or more (almost completely withered))
